Where two headings read alike, the source gives them in different places.
Assays:
[1] = system: E. coli ZJ487 (NDM-1/MCR-1); experiment: microbe, parasite or virus in culture; format: cell-based, Escherichia coli; conditions: for MIC: Escherichia coli; for MIC of Mep combination: Mep with the named analogue at 32 μg/mL; for FIC Index: analogue + Mep; for MIC of analogues of OA combination: analogue with Mep
E. coli ZJ478 = format: in vivo, C57BL/6J male mice; conditions: for survival rate: 120 h
TEM-1 = TEM-1 (Escherichia coli, UniProt P62593); experiment: biochemical; conditions: IC50, purified TEM-1
TEM-1, sequence (P62593 24-286 limits assumed): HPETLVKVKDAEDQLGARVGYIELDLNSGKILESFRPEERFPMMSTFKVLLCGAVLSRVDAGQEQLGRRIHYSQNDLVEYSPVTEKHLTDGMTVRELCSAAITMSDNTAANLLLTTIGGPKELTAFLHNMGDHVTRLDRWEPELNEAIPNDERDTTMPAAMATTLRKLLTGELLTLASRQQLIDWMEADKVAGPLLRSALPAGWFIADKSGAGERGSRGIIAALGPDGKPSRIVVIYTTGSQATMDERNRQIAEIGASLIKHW

OXA-1 = OXA-1 (Escherichia coli, UniProt P13661); experiment: biochemical; design: species or system E. coli; conditions: IC50, purified OXA-1
OXA-1, sequence (P13661 26-276): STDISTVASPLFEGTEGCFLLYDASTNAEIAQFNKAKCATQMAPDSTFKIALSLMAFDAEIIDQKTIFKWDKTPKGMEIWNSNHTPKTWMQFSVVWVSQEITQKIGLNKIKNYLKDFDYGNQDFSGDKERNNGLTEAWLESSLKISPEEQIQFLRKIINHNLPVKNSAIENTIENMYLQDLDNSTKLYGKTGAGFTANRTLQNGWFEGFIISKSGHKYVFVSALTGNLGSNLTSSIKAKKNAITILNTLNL

[2] = system: NDM-1-Asp199Ala, NDM-1-Thr201Ala, and NDM-1-Phe240Ala; format: biochemical
[3] = system: AmpC β-lactamase, E. coli BL21 (pET21a); format: biochemical; conditions: co-culture or co-incubation with OA
NDM-1 F240A = NDM-1 F240A (Klebsiella pneumoniae, UniProt C7C422, F240A); experiment: biochemical; format: binding
A549 cells = format: cell-based, human; conditions: 6 h
MH-S cells = format: cell-based, mouse; conditions: 6 h
[4] = system: E. coli BL21 (pET28a-SP-NDM-1); format: cell-based, Escherichia coli; conditions: OA 32 μg/mL with Mep; postinoculation
E. coli ZJ487 = format: cell-based, Escherichia coli; conditions: OA 32 μg/mL with Mep; postinoculation
S. aureus USA300 [5] = format: cell-based, Staphylococcus aureus; conditions: OA combined with penicillin G
S. aureus USA300 [6] = format: in vivo, C57BL/6J male mice; conditions: for survival rate: 96 h; for activity of β-lactamases in bronchoalveolar lavage fluid: 36 h
NDM-1 = NDM-1 (Escherichia coli, UniProt E5KIY2); format: biochemical, E. coli; conditions: OA analogues, Figure 3G
suilysin (SLY) = suilysin (SLY) (Streptococcus suis, UniProt Q55996); experiment: biochemical
[7] = OA combined with penicillin G, 36 h postinfection
[8] = monotherapy 50 mg/kg subcutaneous every 8 h
[9] = named compound combined with Mep 5 mg/kg
[10] = read-out: MIC of analogues of OA alone, ZJ487, Table 1, median (range)

C[C@@H](O)[C@H]1C(=O)N2C(C(=O)O)=C(S[C@@H]3CN[C@H](C(=O)N(C)C)C3)[C@H](C)[C@H]12 [Meropenem, meropenem, reference compound]
MIC ([1]; read-out: MIC of Mep alone, ZJ487, Table 1, median (range)): 32 µg/mL
MIC of Mep alone ([1]; ZJ487, Table 1, median (range), listed as Mep): 16(16–32) μg/mL
survival rate (E. coli ZJ478; Mep 5 mg/kg alone, subcutaneous every 8 h): 44.4%

CC1(C)CC[C@]2(C(=O)O)CC[C@]3(C)C(=CC[C@@H]4[C@@]5(C)CC[C@H](O)C(C)(C)[C@@H]5CC[C@]43C)[C@@H]2C1 [OA, oleanolic acid]
IC50 (TEM-1): > 109 µM
IC50 (OXA-1): > 109 µM
inhibitory effect on activity of NDM-1 mutants [2]: significant inhibitory effect was not detected
inhibitory effect on β-lactamase activity in culture supernatant [3]: No significant inhibitory effect
Kd (NDM-1 F240A): 14.3 µM
concentration protecting cells from hemolysin-mediated cell injury (A549 cells): 1 to 4 µg/mL
concentration protecting cells from hemolysin-mediated cell injury (MH-S cells): 1 to 4 µg/mL
time to complete elimination [4]: ≤ 6 h
time to complete elimination (E. coli ZJ487): ≤ 3 h
bactericidal effect (S. aureus USA300 [5]): significantly eliminate, but not thoroughly kill
survival rate (S. aureus USA300 [6]; OA 50 mg/kg combined with penicillin G 50 mg/kg, subcutaneous every 8 h): 75.0%
lung lesions (S. aureus USA300 [6]; OA combined with penicillin G): greatly alleviated
IL-1β, IL-6, and TNF-α levels in bronchoalveolar lavage fluid (S. aureus USA300 [6]; [7]): significant decreases
number of bacteria in the lungs (S. aureus USA300 [6]; [7]): significant reduction
bacterial burden and inflammatory responses (S. aureus USA300 [6]; OA monotherapy): also inhibited
survival rate (S. aureus USA300 [6]; [8]): 43.8%
activity of β-lactamases in bronchoalveolar lavage fluid (S. aureus USA300 [6]; monotherapy): inhibited
activity of β-lactamases in bronchoalveolar lavage fluid (S. aureus USA300 [6]; penicillin G combined with OA): inhibited
E. coli colonization in the liver and spleen (E. coli ZJ478; OA combined with Mep, 36 h postinfection): significantly inhibited
survival rate (E. coli ZJ478; [9]): 61.1%

CC1(C)S[C@@H]2[C@H](NC(=O)Cc3ccccc3)C(=O)N2[C@H]1C(=O)O [Penicillin G, penicillin G, reference compound]
survival rate (S. aureus USA300 [6]; [8]): 25.0%
activity of β-lactamases in bronchoalveolar lavage fluid (S. aureus USA300 [6]; monotherapy): such inhibition was not observed

CC1(C)CC[C@]2(C(=O)O)CC[C@]3(C)C(=CC[C@@H]4[C@@]5(C)C[C@@H](O)[C@H](O)[C@@](C)(CO)[C@@H]5CC[C@]43C)[C@@H]2C1 [arjunolic acid]
MIC [1, 10]: 512 µg/mL
MIC of Mep combination ([1]; ZJ487, median (range)): 8(4–16) μg/mL
FIC Index ([1]; ZJ487): 0.40 ± 0.14
MIC of analogues of OA combination ([1]; ZJ487): 32 μg/mL

C[C@H]1[C@H](C)CC[C@]2(C(=O)O)CC[C@]3(C)C(=CC[C@@H]4[C@@]5(C)C[C@@H](O)[C@H](O)C(C)(C)[C@@H]5CC[C@]43C)[C@H]12 [corosolic acid]
MIC [1, 10]: 512 µg/mL
MIC of Mep combination ([1]; ZJ487, median (range)): 2(2–4) μg/mL
FIC Index ([1]; ZJ487): 0.17 ± 0.04
MIC of analogues of OA combination ([1]; ZJ487): 32 μg/mL
inhibitory effect against NDM-1 (NDM-1): robust inhibitory effects
IC50 (suilysin (SLY)): < 2.12 µM
survival rate (E. coli ZJ478; [9]): 77.8%

CC1(C)[C@@H](O[C@H]2O[C@H](C(=O)O)[C@@H](O)[C@H](O)[C@H]2O[C@@H]2O[C@H](C(=O)O)[C@@H](O)[C@H](O)[C@H]2O)CC[C@]2(C)[C@H]3C(=O)C=C4[C@@H]5C[C@@](C)(C(=O)O)CC[C@]5(C)CC[C@@]4(C)[C@]3(C)CC[C@@H]12 [glycyrrhizic acid]
MIC [1, 10]: 512 µg/mL
MIC of Mep combination ([1]; ZJ487, median (range)): 8(4–16) μg/mL
FIC Index ([1]; ZJ487): 0.40 ± 0.14
MIC of analogues of OA combination ([1]; ZJ487): 32 μg/mL

CC1(C)CC[C@]2(C(=O)O)CC[C@]3(C)C(=CC[C@@H]4[C@@]5(C)C[C@@H](O)[C@H](O)C(C)(C)[C@@H]5CC[C@]43C)[C@@H]2C1 [maslinic acid]
MIC [1, 10]: 512 µg/mL
MIC of Mep combination ([1]; ZJ487, median (range)): 4(2–4) μg/mL
FIC Index ([1]; ZJ487): 0.38 ± 0.00
MIC of analogues of OA combination ([1]; ZJ487): 32 μg/mL

C[C@H]1[C@H](C)CC[C@]2(C(=O)O)CC[C@]3(C)C(=CC[C@@H]4[C@@]5(C)CC[C@H](O)C(C)(C)[C@@H]5CC[C@]43C)[C@H]12 [ursolic acid]
MIC [1, 10]: 512 µg/mL
MIC of Mep combination ([1]; ZJ487, median (range)): 2(2–4) μg/mL
FIC Index ([1]; ZJ487): 0.17 ± 0.04
MIC of analogues of OA combination ([1]; ZJ487): 32 μg/mL
inhibitory effect against NDM-1 (NDM-1): robust inhibitory effects

α-boswellic acid
MIC of Mep combination ([1]; ZJ487, median (range)): 16(16) μg/mL
MIC of analogues of OA alone ([1]; ZJ487, Table 1, median (range)): 512(≥512) μg/mL
FIC Index ([1]; ZJ487): 0.73 ± 0.29
MIC of analogues of OA combination ([1]; ZJ487): 32 μg/mL
